Among the data in a melting point compilation (Tetko et al.; mined from patent text by program, amines drawn as free bases though some values may be those of a salt) are melting point values, retold here.

For orientation: melting point means the temperature, or range, at which the solid turns liquid.

Some results are limits rather than exact numbers.

Consider `CC1COc2c(N3CCC(n4cncn4)C3)c(F)cc3c(=O)c(C(=O)O)cn1c23` (single isomer, unassigned; (-)), for which the melting point fell in the range of 229 to 231 °C.
Then `CCCNC(=O)Nc1nc(-c2cc(C)cc(C)c2)c(-c2ccncc2)s1`, with 128 to 130 °C; and `N#CC(Cn1ccnc1)(c1ccccc1)c1ccccn1` (centres undefined), with 83 to 85 °C; and `Cc1cc(-c2ccc(C(F)(F)F)nc2)nc(-c2cccc(-c3ccc(S(N)(=O)=O)s3)c2)n1`, with 238 °C.
`COc1ccc2c(c1Br)CCC=C2C#N` showed a melting point of 108 to 109 °C.
`CN(CCCCP(=O)(O)O)S(=O)(=O)C(F)(F)C(F)(F)C(F)(F)C(F)(F)C(F)(F)C(F)(F)C(F)(F)C(F)(F)F` displayed a melting point of 150 to 163 °C.
Then `N#Cc1cccc(OCc2ccccc2)c1`, with 38 to 40 °C; and `CCN(c1nc(C)cc(C)n1)c1c(O)cc(OC)cc1Br`, with 157 to 160 °C.
Consider `C=C(C)Cn1cnc2c(N)nc3ccccc3c21`, for which the melting point was 290 to 294 °C.
The compound `CC(C)NCC(O)c1cc(F)cc(C#N)c1` (centres undefined) came in with a melting point of 85.5 to 86.5 °C.
For `CCOC(=O)C(=CNC1=NN(c2ccc(Cl)cc2)CC1)C(=O)OCC`, the melting point was 159 to 162 °C.
Then `Brc1cn2c(Br)cnc2c(N2CCCCC2)n1`, with 72 °C; and `CC(=O)c1nn(-c2c(Cl)cc(C(F)(F)F)cc2Cl)cc1SC(F)(F)F`, with 89 to 91 °C.
For `COc1cc2c(cc1OC)CCC(C(=N)NO)=C2`, the melting point was in the range of 202 to 205 °C.
Then `CC(=O)C(=Cc1ccc2c(c1)OCO2)C(C)=O`, with 79 to 80 °C; and `O=C(C#Cc1cccc(OCc2ccccc2)c1)c1ccccc1`, with 75 to 77 °C.
Compound `c1ccc(OCCSCc2nnc(-c3ccc(OCCN4CCSCC4)cc3)o2)cc1` registered a melting point of 60 °C.
For `Clc1ccc(Cn2ccc3cc(OCc4nnn[nH]4)ccc32)cc1`, the melting point lay in the range of 162 to 163 °C.
Then `CN1CN(C)c2nc3n(Cc4ccc(F)cc4)c(=O)cc(O)n3c2C1=O`, with 214 to 232 °C; and `NC(=O)c1ccc(NC(=O)CCc2cnoc2-c2ccccc2)cc1`, with 250 to 251 °C; and `CCCC(=O)c1cnc2ccsc2c1Nc1ccc(F)cc1C`, with 153 to 155 °C.
`Cc1c(N)ccn2nc(-c3ccccc3)nc12`: the melting point lay in the range of 213 to 215 °C.
Turning to `CCCc1c(SC(=O)N(C)C)ccc2c(=O)cc(C(=O)OCC)oc12`, the melting point fell in the range of 113 to 114 °C.
Consider `CCOc1ccc(S(=O)(=O)N(Cc2ccc(C#N)cc2)[C@@H](CC)c2ccccc2)cc1`, for which the melting point lay within 97 to 98 °C.
`CC(=O)Nc1cc(C(F)(F)F)no1`: the melting point was in the range of 108 to 110 °C.
As for `CCOC(=O)c1c2n(c3c(Br)c(N4CCN(C)CC4)c(F)cc3c1=O)C(C)S2` (centres undefined), the melting point lay in the range of 189 to 190 °C.
In turn, `NC(=O)C(Sc1nc2cc(Cl)ccc2s1)c1ccccc1` (centres undefined) returned a melting point of 181 to 183 °C.
Consider `COc1ccc(C(=O)c2cccc(Br)c2F)cc1`, for which the melting point lay in the range of 88 to 90 °C.
Then `Cc1nc(CN(C(=O)CCl)c2c(C)cccc2C)cs1`, with 62 to 64 °C; and `Cn1cc(O)c(=O)c2ccc(OCC(F)(F)F)cc21`, with 151 °C; and `CNc1c(C(=O)OC)c(C)nc2c1c1ccccc1n2C`, with 90 to 91 °C.
Regarding `O=c1cc(-c2ccncc2)oc2ccccc12`, the melting point lay in the range of 144 to 145 °C.
On to `COc1ccc(C(=O)C(Cl)=NO)cc1`, for which the melting point is 118 to 125 °C.
Compound `CC(=O)Nc1ccc2c(c1)CN(C)CC2` returned a melting point of 157 to 159 °C.
In the case of `CN(Cc1cc2c(=O)c(C(=O)NCc3ccc(Cl)cc3)cn(C)c2s1)CC(O)c1ccc(O)cc1` (centres undefined), the melting point was in the range of 134 to 143 °C.
In turn, `CCNC(=O)c1ccc(C=O)cc1` came in with a melting point of 100 °C.
As for `Cc1[nH]cnc1/C=C/C(=O)c1c(C)oc2ccccc12`, the melting point was 166 to 168 °C.
The compound `COc1cccc2c1OC(SC)C2=O` (centres undefined) gave a melting point of 103 to 105 °C.
Compound `COC(=O)C(=O)c1ccnc(NC=O)n1` displayed a melting point of 143 to 144 °C.
With `CC(C)(C)c1ccccc1N1CCN(C(=O)C2CCC(=O)N2)CC1` (centres undefined), the melting point worked out at 290 °C.
For `Nc1ncnc2c1c(-c1ccc(Oc3ccccc3)cc1)cn2C1COCC1O` (centres undefined), the melting point is 234 to 236 °C.
Then `CCCCSc1ccc(C(=O)O)nc1`, with 100 to 102 °C; and `O=C(CCc1ccccc1)Nc1cc(-c2nnc(CCc3cccc(F)c3)o2)ccn1`, with 171 to 172 °C; and `COCc1ccc(Oc2cc(OC)c3[nH]c(C4=NCC(CC(N)=O)S4)cc3c2)cn1` (centres undefined), with 135 to 136 °C.
Then `CN(C)S(=O)(=O)c1ccc2c(c1)CCC2=O`, with 142 °C.
`Clc1ncccc1-c1ccccn1` yielded a melting point of 50 °C.
Regarding `Cc1c(C(C)N(O)C(N)=O)sc2ccccc12` (centres undefined), the melting point lay in the range of 130 to 132 °C.
Then `CCOC(=O)c1sc(C(=O)OCC)c2c1OC=CCO2`, with 198 to 200 °C; and `O=S(=O)(Cl)c1ccc(Nc2nccc(Cl)n2)cc1`, with 192 to 195 °C.
Take `C1=Cc2ccccc2NN=C1`: the melting point lay in the range of 183 to 184 °C.
Compound `COC(=O)c1cc(OC(C)C)nn1Cc1ccc(Cl)cc1Cl` had a melting point of 89 to 90 °C.
On to `CNC(=S)Nc1ccc(Oc2sc(C(N)=O)c3c2-c2c(cnn2C)CC3)cc1`, for which the melting point lay in the range of 199 to 201 °C.
Compound `O=C(O)[C@H]1C=C[C@H](c2ccccc2)n2c(=O)n(CCS)c(=O)n21` (relative stereo) displayed a melting point of 153 to 154 °C.
Compound `Nc1nnc2ccc(N3CCCCC3)nn12` registered a melting point of 245 to 246 °C.
In the case of `CC(C)c1noc(-c2c(Cl)ccc(C(=O)O)c2Cl)n1`, the melting point was 104 to 107 °C.
Then `CN(C)c1ccc(C(=O)C(C)(C)N(C)C)cc1`, with 89 to 91 °C; and `CCCCOc1ccc2c(=O)n(Cc3ccccc3)[nH]c2c1`, with 148 to 149 °C; and `C=CCN1CCC(Nc2ccc(Cl)cc2)CC1`, with 90 °C.
Turning to `COc1ccc(CCBr)cc1OC`, the melting point lay in the range of 72 to 73 °C.
In turn, `CCOC(=O)c1cc2cc(-c3ccc(C(C)O)cc3)ccc2o1` (centres undefined) returned a melting point of 108 to 109 °C.
On to `CC(C)Oc1cc(-n2c(=O)cc(C(F)(F)C(F)(F)F)[nH]c2=O)c(F)cc1Cl`, for which the melting point lay within 141 to 143 °C.
For the compound `CCc1nc(CCc2ccc(NC(=O)/C=C/c3cnn(CC)c3-c3ccc(F)cc3)cc2)cs1`, the melting point fell in the range of 190 to 191 °C.
In turn, `O=c1nc(N(Cc2ccccc2)c2ccccc2)sc2ncccc12` yielded a melting point of 137 to 138 °C.
Then `CCCCn1nc2c(N)nc3ccccc3c2c1CC`, with 215 to 216 °C; and `CCCCCC(CC(=O)Nc1cc(C(=O)NC(=O)c2ccncc2)ccc1C(C)(C)C)c1ccc(OC)cc1OC` (centres undefined), with 184 to 185 °C.
As for `O=C(c1ccc(F)cc1)c1ccc(C#Cc2ccc(F)cc2)cc1`, the melting point fell in the range of 190 to 191 °C.
The compound `CCN(CC)CCNc1ccc(NCCN(CC)CC)c2c1C(=O)c1ccccc1C2=O` returned a melting point of 109 °C.
`COc1cc(C(=O)O)ccc1NC(=O)OC(C)(C)C` gave a melting point of 176 to 178 °C.
Regarding `O=C(Cc1c(-c2ccccc2)nn(-c2ccccc2)c1-c1ccccc1)Oc1ccccc1C(=O)O`, the melting point was in the range of 190 to 191 °C.
Compound `CC(=O)c1cc(Oc2ccccc2)c(NS(C)(=O)=O)cc1O` displayed a melting point of 151 to 153 °C.
Then `COc1cc2c(Nc3ccc(Sc4ccccn4)cc3)c(C#N)cnc2cc1F`, with 231 to 233 °C; and `O=C1C2=C(CCCC2)C(=O)N1c1ccc(O)cc1F`, with 132 to 136 °C; and `O=C(Nc1ccc(C2=CCN(Cc3ccccc3)CC2)cc1)c1ccccc1-c1ccccc1`, with 142 °C.
`COC1=C(C(=O)NNC(=O)Cc2ccc(F)cc2)CN(C(C)C)C1=O` displayed a melting point of 157 to 158 °C.
As for `O=C(SC[C@@H](SC(=O)c1ccccc1)C(=O)N1CCC[C@H]1C(=O)O)c1ccccc1`, the melting point lay in the range of 195 to 196 °C.
`CCN(CCc1ccccc1OCc1ccccc1)c1ccc(C(=O)O)cc1` came in with a melting point of 175 °C.
Then `OCCCc1ccncc1O`, with 123 to 126 °C; and `CCOC(=O)N1CCc2[nH]cc3c(=O)n(-c4ccccc4)nc-3c2C1`, with 236 to 238 °C; and `Cc1nc(C(F)(F)F)ccc1C(=O)C1=C(O)C2CCC(C2)C1=O` (centres undefined), with 75 to 77 °C.
For the compound `COc1cc2c(cc1[N+](=O)[O-])C(C)CC1c3ccccc3CC1(C)C2` (centres undefined), the melting point was in the range of 90 to 94 °C.
Compound `COC(=O)c1cc(I)cc(C)c1O` returned a melting point of 82 to 84 °C.
`CCOC(=O)COc1cc(Cl)c2c(=O)c(-c3ccccc3C)coc2c1` returned a melting point of 122 to 123 °C.
`CC(Cn1ccc(-c2ccccc2Cl)n1)C(=O)N(C)C` (centres undefined) registered a melting point of 87 to 88 °C.
`COC(=O)C=Cc1cccc2[nH]ccc12` yielded a melting point of 113 to 115 °C.
`COc1ccc(C(=CC(=O)N2CCOCC2)c2ccc(CC(=O)O)cc2)cc1OC` displayed a melting point of 192 to 194 °C.
Consider `CC(C(N)=O)c1ccc2c(c1)C(=O)Cc1cc(F)ccc1S2` (centres undefined), for which the melting point fell in the range of 224 to 225 °C.
In the case of `Cc1ccc(NCCCNc2ncc(Cc3ccc(C)nc3)c(=O)[nH]2)nc1`, the melting point was 164 to 166 °C.
With `O=C1N=CN(CC2CCCCC2)C12CCN(Cc1ccccc1)CC2`, the melting point fell in the range of 117 to 118 °C.
Then `Nc1c(-c2ccc(-c3ccccc3)cc2)nc2ccc(Cl)cc2c1C(=O)O`, with 244 to 245 °C; and `CC(C)(CNC(=O)C(O)CO)c1ccc(C(=O)Nc2cn3cc(Cl)ccc3n2)cc1` (centres undefined), with 228 to 229 °C; and `c1ccc(COc2ccc(N3CCN(Cc4nc5ccccc5[nH]4)CC3)nc2)cc1`, with 62 to 64 °C.
`COCCNC(=O)c1cccc(-c2cccc3cc(Cc4ccc(F)cc4F)sc23)c1`: the melting point was in the range of 94 to 95 °C.
In the case of `O=C1C2CCCCC2C(=O)N1c1ccncc1` (centres undefined), the melting point was in the range of 165 to 168 °C.
Take `CCOC(=O)c1ccc(-c2ccc(-c3ccccc3)cc2-c2ccc3c(c2)C(C)(C)CCC3(C)C)cc1O`: the melting point was < 70 °C.
